Experimental data as given in patent US6268395A, “Phorbol derivatives having antivirus activity” (Lead Chemical Co., Ltd., priority 1999, dated 2001).
Entries after “also recorded” stand apart in the source; their conditions may differ. Like-named read-outs stand apart in the source and are kept apart here.

Legend:
[1] = system: HIV; conditions: cited from earlier work
[2] = system: P-388 leukemia; conditions: P-388 leukemia in mice; cited from earlier work
[3] = system: protein kinase C (PKC); assay type: biochemical, mouse; conditions: for % Activity of PKC: relative to TPA positive control; for activation of PKC (in words): concentration not given; for PKC activation (in words): 10 ng/mL (standard concentration)
Experimental: After addition of 0.55 nM [γ-^32 P] ATP (50×10^3 cpm/nmol), the reaction mixture was mixed and allowed to be kept at 37° C. for 30 minutes. Then the reactions were terminated by the addition of 10 μl of ice-cold stop reagent. Aliquots of 35 μL were transferred to the center of peptide binding discs. After 10 minutes, the discs were washed two times with 75 mM orthophosphoric acid. The activity of ^32 P-labeled samples was counted in 10/mL of a scintillation fluid for 1 minute. […] Blank (in the absence of PKC) and control (in the absence of TPA or tested samples) were also carried out. One unit of PKC was defined as that amount of enzyme, which incorporated 1 nmol of phosphate from ATP into its substrate, peptide, per minute under the assay conditions, described above.

[4] = system: HIV-1; assay: Inhibition of HIV-1-induced cytopathic effect (CPE) in MT-4 cells; assay type: cell-based, HIV-1 (LAV-1) in human MT-4 cells; conditions: for IC100: Human immunodeficiency virus 1, MT4, 120 h, read-out: Anti-HIV-1 IC100 (complete prevention of HIV-1-induced CPE); for r = CC0/IC100: 7200 min; for CPE inhibitory effect (in words): HIV-1
Experimental: (§1) In the experiments, MT-4 cells were used. The cells were incubated at 37° C. under 5% CO2 in RPMI-1640 medium (FCS, Flow laboratories, North Ryde, Australia) supplemented with 100 μg/mL of streptomycin (Meiji Seika, Tokyo, Japan), and 100 U/mL of penicillin G (Banyu Pharmaceutical, Tokyo, Japan).
HIV-1 was obtained from culture supernatant of MOLT-4 cells that had been persistently infected with LAV-1.
j) Assay of cytopathic effect(CPE) of HIV-1 in MT-4 cells
(§2) The inhibitory effect of test compounds on HIV-1-induced cytopathogenicity was measured by the method of Harada, Koyanagi & Yamamoto (1985). MT-4 cells were infected for 1 hour with HIV-1 (at TCID50 of 0.001/well) and non-adsorbed virus was removed by washing. Then, the cells were resuspended in RPMI-1640 medium at a concentration of 1.5×10^5 cells/mL. A 200 μL/well of the cell suspension was cultured for 5 days in days in a 96-well culture plate containing various concentrations (12 doses, maximum 1,000 μg/mL and minimum […]) of the test compounds. Control assays were performed in the absence of test compounds with HIV-1-infected and uninfected cultures. On day 5, the IC100 of the test compound required for completely preventing HIV-1-induced CPE(IC) was determined through an optical microscope and the cell growth was examined to give the CC0 that reduces the viability of MT-4 cells.
A variety of phorbol esters and related compounds were tested for their ability to inhibit the replication and infectivity of HIV-1 in MT-4 cells, a human CD4-positive cell line continually infected with HTLV-1, and the results are presented in Table 3.

[5] = Cell growth / viability of MT-4 cells (cytotoxicity); assay type: cell-based; conditions: human, day 5, read-out: CC0 (concentration that reduces viability of MT-4 cells; minimum cytotoxic concentration)
Experimental: as §1, §2

[6] = MT-4 cells, 5 days, NE: Not effective

Compound	anti-HIV activity [1]	antileukemic activity [2]	% Activity of PKC ([3]; 10 ng/mL)	% Activity of PKC ([3]; 2.7 μg/mL)	IC100 [4, 6]	r = CC0/IC100 ([4]; MT-4 cells)	MCC at 120 h [5]	Anti-HIV-1 IC100 (complete prevention of HIV-1-induced CPE) [4, 6]	activation of PKC (in words) [3]	CPE inhibitory effect (in words) ([4]; MT-4 cells)	anti-HIV-1 activity ([4]; at concentrations up to 500 μg/mL)	PKC activation (in words) [3]	enhancement of CPE inhibitory activity ([4]; relative to compound 1)	IC100 [4]
CC(=O)O[C@@]12C[C@@H](C)[C@@]3(O)[C@@H](C=C(CO)C[C@]4(O)C(=O)C(C)=C[C@@H]34)[C@@H]1C2(C)C [12-Deoxyphorbol-13-acetate]	having an anti-HIV activity	–	–	–	–	–	–	–	–	–	–	–	–	–
C/C=C(\C)C(=O)O[C@@H]1[C@@H](C)[C@@]2(O)[C@@H](C=C(CO)C[C@]3(O)C(=O)C(C)=C[C@@H]23)[C@@H]2C(C)(C)[C@]12OC(=O)CCCCCCCCC [12-O-tigloylphorbol-13-decanoate]	–	demonstrated antileukemic activity	–	–	–	–	–	–	–	–	–	–	–	–
CCCCCCCCCCCC(=O)O[C@@]12[C@H](OC(=O)C(C)CC)[C@@H](C)[C@@]3(O)[C@@H](C=C(CO)C[C@]4(O)C(=O)C(C)=C[C@@H]34)[C@@H]1C2(C)C (stereo partly drawn) [Compound 7, 12-O-(2-Methylbutyroyl)phorbol-13-dodecanoate]	–	–	16%	30%	15.6 µg/mL	4.01	62.5 µg/mL	–	–	–	–	–	–	–
C/C=C(\C)C(=O)O[C@@]12[C@H](O)[C@@H](C)[C@@]3(O)[C@@H](C=C(COC(=O)CCCCCCC/C=C\C/C=C\CCCCC)C[C@]4(O)C(=O)C(C)=C[C@@H]34)[C@@H]1C2(C)C [Compound 2, 13-O-Tigloylphorobol-20-(9Z,12Z-octadecadienoate)]	–	–	14%	32%	7.81 µg/mL	8.00	62.5 µg/mL	7.8 µg/mL	–	–	–	–	–	–
CC1=C[C@@H]2[C@@H](CC(CO)=C[C@H]3[C@@H]4C(C)(C)[C@]4(O)[C@H](O)[C@@H](C)[C@]23O)C1=O [Compound 20, 4-Deoxy-4α-phorbol]	–	–	0%	25%	–	–	500 µg/mL	–	weak activators of PKC	did not show CPE inhibitory effect; also recorded: showed no effect	did not show anti-HIV-1 activity	–	–	–
CC(=O)OCC1=C[C@H]2[C@@H]3C(C)(C)[C@]3(OC(C)=O)[C@H](OC(C)=O)[C@@H](C)[C@]2(O)[C@@H]2C=C(C)C(=O)[C@@]2(O)C1 [Compound 11, Phorbol-12,13,20-triacetate]	–	–	0%	15%	62.5 µg/mL	2.00	125 µg/mL	–	–	–	–	did not activate PKC	–	–
CC(=O)O[C@@]12[C@H](O)[C@@H](C)[C@@]3(O)[C@@H](C=C(CO)C[C@]4(O)C(=O)C(C)=C[C@@H]34)[C@@H]1C2(C)C [Compound 10, 13-O-Acetylphorbol]	–	–	0%	14%	125 µg/mL	> 8.00	> 1000 µg/mL	–	–	–	–	did not activate PKC	–	–
C=C(C)C1C(OC(C)=O)=CC(C)C2(O)C1C=C(COC(=O)CCCCCCC/C=C\C/C=C\CCCCC)CC1(O)C(=O)C(C)=CC12 (stereo not drawn) [Compound 18, 13-O-Acetylcrotophorbolone-enol-20-linoleate]	–	–	24%	24%	7.81 µg/mL	16.0	125 µg/mL	7.8 µg/mL	–	–	–	–	2 times	–
CC(=O)OCC1=C[C@H]2[C@@H]3C(C)(C)[C@]3(OC(C)=O)[C@H](OC(C)=O)[C@@H](C)[C@]2(O)[C@@H]2C=C(C)[C@H](O)[C@@]2(O)C1 [Compound 15, 3-Deoxo-3β-hydroxyphorbol-12,13,20-triacetate]	–	–	0%	26%	–	2.00	1000 µg/mL	–	–	loss of CPE inhibitory effect	–	–	–	500 µg/mL
CCCCC/C=C\C/C=C\CCCCCCCC(=O)OCC1=C[C@H]2[C@@H]3C(C)(C)[C@]3(OC(C)=O)[C@H](OC(C)=O)[C@@H](C)[C@]2(O)[C@@H]2C=C(C)C(=O)[C@@]2(O)C1 [Compound 13, Phorbol-12,13-diacetate-20-linoleate]	–	–	0%	44%	7.81 µg/mL	8.00	62.5 µg/mL	7.8 µg/mL	without an increase in the activity of PKC	Enhancement of the anti-HIV activity	–	–	–	–
CCCCC/C=C\C/C=C\CCCCCCCC(=O)OCC1=C[C@H]2[C@@H]3C(C)(C)[C@]3(OC(C)=O)[C@H](O)[C@@H](C)[C@]2(O)[C@@H]2C=C(C)C(=O)[C@@]2(O)C1 [Compound 1, 13-O-Acetylphorbol-20-(9Z,12Z-octadecadienoate)]	–	–	0%	–	15.6 µg/mL	4.01	62.5 µg/mL	–	–	–	–	did not activate PKC	–	–
